Results published in US11225505B2, “Antimicrobial polymyxin derivative compounds” (MONASH UNIVERSITY, priority 2015, dated 2022).
≈ marks a conversion by molar mass, not a printed value. Where two headings read alike, the source gives them in different places. Where a SMILES comes first, the peptide text is derived from it. Bridges are numbered along the chain shown (N, C = ends). [ ]: non-standard residue; d: D form. The star is where a group is joined. Propanoyl(3-indol-3-yl) = O=C(CCc1c[nH]c2ccccc12)*; X50 = O=C(c1sc(Br)cc1Br)*; X29 = O=C(c1cc(Cl)ccn1)*; X65 = O=C(c1cc(Br)ccn1)*; Dab = NCC[C@H](N)C(=O)O; X68 = O=C(c1coc(Br)c1)*; X70 = O=C(c1csc(Br)c1)*; Abu = CC[C@H](N)C(=O)O; Dap = NC[C@H](N)C(=O)O

Assays:
Assay type in all cases: cell-based
[1] = test system: Acinetobacter baumannii ATCC 17978
Summary of the method: (§1)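 Standard CLSI (M100-S24) microdilution in cation-adjusted broth gives the MIC for each strain. Test compounds are TFA-salt lipopeptides; the comparator is polymyxin B sulphate.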

[2] = test system: Acinetobacter baumannii FADDI-AB034
Summary of the method: as §1

[3] = test system: Enterobacter cloacae FADDI-EC001
Summary of the method: (§2)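 In cation-adjusted Mueller-Hinton broth, each lipopeptide (TFA salt) was titrated against the bacteria by microdilution and the minimum inhibitory concentration recorded per CLSI M100-S24; polymyxin B sulphate ran in parallel.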

[4] = test system: Enterobacter cloacae FADDI-EC003
Summary of the method: as §1

[5] = test system: Enterobacter cloacae FADDI-EC006
Summary of the method: as §1

[6] = test system: Klebsiella pneumoniae FADDI-KP022
Summary of the method: as §1

[7] = test system: Klebsiella pneumoniae FADDI-KP032
Summary of the method: as §1

[8] = test system: Klebsiella pneumoniae Kp BM1
Summary of the method: as §2

[9] = test system: Pseudomonas aeruginosa ATCC 27853
Summary of the method: as §1

[10] = test system: Pseudomonas aeruginosa FADDI-PA01
Summary of the method: as §1

[11] = test system: Pseudomonas aeruginosa FADDI-PA022
Summary of the method: as §1

[12] = test system: Pseudomonas aeruginosa FADDI-PA038
Summary of the method: as §1

[13] = test system: Acinetobacter baumannii FADDI-AB030; test: microbe, parasite or virus in culture
Summary of the method: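 Broth microdilution MIC in cation-adjusted Mueller-Hinton broth per CLSI M100-S24; lipopeptides tested as TFA salts. FADDI-AB030 is a multidrug-resistant clinical isolate. Polymyxin B sulphate served as control.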

| Compound | Minimum inhibitory concentration ([1]; ATCC 17978) [mg/L] | Minimum inhibitory concentration ([2]; FADDI-AB034) [mg/L] | Minimum inhibitory concentration ([3]; FADDI-EC001) [mg/L] | Minimum inhibitory concentration ([4]; FADDI-EC003) [mg/L] | Minimum inhibitory concentration ([5]; FADDI-EC006) [mg/L] | Minimum inhibitory concentration ([6]; FADDI-KP022) [mg/L] | Minimum inhibitory concentration ([7]; FADDI-KP032) [mg/L] | Minimum inhibitory concentration ([8]; Kp BM1) [mg/L] | Minimum inhibitory concentration ([9]; ATCC 27853) [mg/L] | Minimum inhibitory concentration ([10]; FADDI-) [mg/L] | Minimum inhibitory concentration ([11]; FADDI-PA022) [mg/L] | Minimum inhibitory concentration ([12]; FADDI-PA038) [mg/L] | Minimum inhibitory concentration ([13]; FADDI-AB030) [mg/L] | further results |
| --- | --- | --- | --- | --- | --- | --- | --- | --- | --- | --- | --- | --- | --- | --- |
| CC(C)C[C@H]1NC(=O)[C@H](CCN)NC(=O)[C@@H](NC(=O)[C@H](CN)NC(=O)[C@@H](NC(=O)[C@H](CCN)NC(=O)c2cc(Cl)ccn2)[C@@H](C)O)CCNC(=O)[C@H]([C@@H](C)O)NC(=O)[C@H](CCN)NC(=O)[C@H](CCN)NC(=O)[C@H]([C@@H](C)O)NC1=O [Compound 98] (X29-[Dab]T[Dap][Dab][Dab][dL]T[Dab][Dab]T; lactam 4-C) | 2 (≈ 1.75 µM) | 2 (≈ 1.75 µM) | <0.125 | <0.125 | 0.5 (≈ 0.438 µM) | <0.125 | 0.25 (≈ 0.219 µM) | 0.25 (≈ 0.219 µM) | 0.25 (≈ 0.219 µM) | 0.25 (≈ 0.219 µM) | 0.25 (≈ 0.219 µM) | 8 (≈ 7 µM) | 1 (≈ 0.875 µM) |  |
| CC(C)C[C@H]1NC(=O)[C@H](CCN)NC(=O)[C@@H](NC(=O)[C@H](CN)NC(=O)[C@@H](NC(=O)[C@H](CCN)NC(=O)c2sc(Br)cc2Br)[C@@H](C)O)CCNC(=O)[C@H]([C@@H](C)O)NC(=O)[C@H](CCN)NC(=O)[C@H](CCN)NC(=O)[C@H](C)NC1=O [Compound 99] (X50-[Dab]T[Dap][Dab][Dab][dL]A[Dab][Dab]T; lactam 4-C) | 1 (≈ 0.806 µM) | 0.5 (≈ 0.403 µM) | <0.125 | 0.25 (≈ 0.201 µM) | <0.125 | <0.125 | <0.125 | 0.25 (≈ 0.201 µM) | 0.25 (≈ 0.201 µM) | 0.25 (≈ 0.201 µM) | 0.25 (≈ 0.201 µM) | 1 (≈ 0.806 µM) | 0.5 (≈ 0.403 µM) |  |
| CC(C)C[C@H]1NC(=O)[C@H](CCN)NC(=O)[C@@H](NC(=O)[C@H](CN)NC(=O)[C@@H](NC(=O)[C@H](CCN)NC(=O)c2sc(Br)cc2Br)[C@@H](C)O)CCNC(=O)[C@H]([C@@H](C)O)NC(=O)[C@H](CCN)NC(=O)[C@H](CCN)NC(=O)[C@H]([C@@H](C)O)NC1=O [Compound 100] (X50-[Dab]T[Dap][Dab][Dab][dL]T[Dab][Dab]T; lactam 4-C) | 0.25 (≈ 0.197 µM) | 0.5 (≈ 0.393 µM) | <0.125 | <0.125 | <0.125 | <0.125 | 0.25 (≈ 0.197 µM) | 0.5 (≈ 0.393 µM) | <0.125 | <0.125 | <0.125 | 1 (≈ 0.787 µM) | 0.5 (≈ 0.393 µM) |  |
| CC[C@@H]1NC(=O)[C@@H](CC(C)C)NC(=O)[C@H](CCN)NC(=O)[C@@H](NC(=O)[C@H](CN)NC(=O)[C@@H](NC(=O)[C@H](CCN)NC(=O)c2csc(Br)c2)[C@@H](C)O)CCNC(=O)[C@H]([C@@H](C)O)NC(=O)[C@H](CCN)NC(=O)[C@H](CCN)NC1=O [Compound 101] (X70-[Dab]T[Dap][Dab][Dab][dL][Abu][Dab][Dab]T; lactam 4-C) | 0.5 (≈ 0.425 µM) | 0.5 (≈ 0.425 µM) | 0.5 (≈ 0.425 µM) | 0.5 (≈ 0.425 µM) | 0.5 (≈ 0.425 µM) | 1 (≈ 0.85 µM) | 0.5 (≈ 0.425 µM) | 0.5 (≈ 0.425 µM) | 0.25 (≈ 0.213 µM) | 0.25 (≈ 0.213 µM) | 0.25 (≈ 0.213 µM) | 0.5 (≈ 0.425 µM) | 0.5 (≈ 0.425 µM) |  |
| CC[C@@H]1NC(=O)[C@@H](CC(C)C)NC(=O)[C@H](CCN)NC(=O)[C@@H](NC(=O)[C@H](CN)NC(=O)[C@@H](NC(=O)[C@H](CCN)NC(=O)c2cc(Br)ccn2)[C@@H](C)O)CCNC(=O)[C@H]([C@@H](C)O)NC(=O)[C@H](CCN)NC(=O)[C@H](CCN)NC1=O [Compound 102] (X65-[Dab]T[Dap][Dab][Dab][dL][Abu][Dab][Dab]T; lactam 4-C) | 0.5 (≈ 0.427 µM) | 0.5 (≈ 0.427 µM) | <0.125 | <0.125 | <0.125 | <0.125 | 0.25 (≈ 0.213 µM) | <0.125 | 0.5 (≈ 0.427 µM) | 0.5 (≈ 0.427 µM) | 0.5 (≈ 0.427 µM) | 1 (≈ 0.854 µM) | 0.25 (≈ 0.213 µM) |  |
| CC[C@@H]1NC(=O)[C@@H](CC(C)C)NC(=O)[C@H](CCN)NC(=O)[C@@H](NC(=O)[C@H](CN)NC(=O)[C@@H](NC(=O)[C@H](CCN)NC(=O)c2coc(Br)c2)[C@@H](C)O)CCNC(=O)[C@H]([C@@H](C)O)NC(=O)[C@H](CCN)NC(=O)[C@H](CCN)NC1=O [Compound 103] (X68-[Dab]T[Dap][Dab][Dab][dL][Abu][Dab][Dab]T; lactam 4-C) | 1 (≈ 0.862 µM) | 1 (≈ 0.862 µM) | 0.5 (≈ 0.431 µM) | 0.5 (≈ 0.431 µM) | 0.5 (≈ 0.431 µM) | <0.125 | 0.5 (≈ 0.431 µM) | 0.5 (≈ 0.431 µM) | 0.5 (≈ 0.431 µM) | 0.5 (≈ 0.431 µM) | 0.5 (≈ 0.431 µM) | 2 (≈ 1.72 µM) | 1 (≈ 0.862 µM) |  |
| CC[C@@H]1NC(=O)[C@@H](CC(C)C)NC(=O)[C@H](CCN)NC(=O)[C@@H](NC(=O)[C@H](CN)NC(=O)[C@@H](NC(=O)[C@H](CCN)NC(=O)CCc2c[nH]c3ccccc23)[C@@H](C)O)CCNC(=O)[C@H]([C@@H](C)O)NC(=O)[C@H](CCN)NC(=O)[C@H](CCN)NC1=O [Compound 104] ({Propanoyl(3-indol-3-yl)}-[Dab]T[Dap][Dab][Dab][dL][Abu][Dab][Dab]T; lactam 4-C) | 0.5 (≈ 0.432 µM) | 0.5 (≈ 0.432 µM) | <0.125 | <0.125 | 0.25 (≈ 0.216 µM) | <0.125 | <0.125 | <0.125 | 0.25 (≈ 0.216 µM) | <0.125 | 0.25 (≈ 0.216 µM) | 0.5 (≈ 0.432 µM) | 0.5 (≈ 0.432 µM) |  |
| Polymyxin B [reference compound] |  |  |  |  |  |  |  |  |  |  |  |  |  | Minimum inhibitory concentration ([1]; A. baumannii ATCC 17978, CAMHB broth microdilution): 1 mg/L; Minimum inhibitory concentration ([2]; A. baumannii FADDI-AB034, CAMHB broth microdilution): 0.5 mg/L; Minimum inhibitory concentration ([3]; E. cloacae FADDI-EC001, CAMHB broth microdilution): 0.25 mg/L; Minimum inhibitory concentration ([4]; E. cloacae FADDI-EC003, CAMHB broth microdilution): 0.5 mg/L; Minimum inhibitory concentration ([5]; E. cloacae FADDI-EC006, CAMHB broth microdilution): 0.5 mg/L; Minimum inhibitory concentration ([6]; K. pneumoniae FADDI-KP022, CAMHB broth microdilution): <0.125 mg/L; Minimum inhibitory concentration ([7]; K. pneumoniae FADDI-KP032, CAMHB broth microdilution): <0.125 mg/L; Minimum inhibitory concentration ([8]; K. pneumoniae Kp BM1, CAMHB broth microdilution): 0.5 mg/L; Minimum inhibitory concentration ([9]; P. aeruginosa ATCC 27853, CAMHB broth microdilution): 1 mg/L; Minimum inhibitory concentration ([10]; P. aeruginosa FADDI-PA01, CAMHB broth microdilution): 0.5 mg/L; Minimum inhibitory concentration ([11]; P. aeruginosa FADDI-PA022, CAMHB broth microdilution): 1 mg/L; Minimum inhibitory concentration ([12]; P. aeruginosa FADDI-PA038, CAMHB broth microdilution): 1 mg/L; Minimum inhibitory concentration ([13]; A. baumannii FADDI-AB030, CAMHB broth microdilution): 0.25 mg/L; Minimum inhibitory concentration ([13]; clinically used antibiotics, clinical isolate A. baumannii FADDI-AB030): 0.25 mg/L |
